Results published in patent US6455582B1, “Sulohydroxamic acids and sulohyroxamates and their use as MEK inhibitors” (Warner-Lambert Company, priority 1999, dated 2002).
pIC50: −log10 of the molar value.

Target: GST-MEK / GST-MAPK (p45MEK, p44MAP kinase) cascade
Experiment: Cascade assay for inhibitors of the MAP kinase pathway (APK)
Format: biochemical
Procedure: Cascade assay for inhibitors of the MAP kinase pathway
Incorporation of ^32P into myelin basic protein (MBP) is assayed in the presence of a glutathione S-transferase fusion protein containing p44MAP kinase (GST-MAPK) and a glutathione S-transferase fusion protein containing p45MEK (GST-MEK). The assay solution contains 20 mM HEPES, pH 7.4, 10 mM MgCl2, 1 mM MnCl2, 1 mM EGTA, 50,μM [γ-^32P]ATP, 10 μg GST-MEK, 0.5 μg GST-MAPK and 40 μg MBP in a final volume of 100 μL. Reactions are stopped after 20 minutes by addition of trichloroacetic acid and filtered through a GF/C filter mat. ^32P retained on the filter mat is determined using a 120S Betaplate. Compounds are assessed at 10 μM for ability to inhibit incorporation of ^32P
To ascertain whether compounds are inhibiting GST-MEK or GST MAPK, two additional protocols are employed. In the first protocol, compounds are added to tubes containing GST-MEK, followed by addition of GST-MAPK, MBP and [γ-^32P]ATP. In the second protocol, compounds are added to tubes containing both GST-MEK and GST-MAPK, followed by MBP and [γ-^32P]ATP.
Compounds that show activity in both protocols are scored as MAPK inhibitors, while compounds showing activity in only the first protocol are scored as MEK inhibitors.

pIC50: 6.02
Structure (SMILES): O=S(=O)(NOCC1CC1)c1ccc(F)c(F)c1Nc1ccc(I)cc1Cl [PD 0297447, 2-(2-Chloro-4-iodo-phenylamino)-N-cyclopropylmethoxy-3,4-difluoro-benzenesulfonamide]
